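Where inhibition never reached the appropriate level, the endpoint shown equals the highest concentration tested. Otherwise, values were interpolated linearly from a five-concentration, 48-hour dose response in 96-well plates. Definition used: TGI = concentration required for complete inhibition of growth.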
How the values were obtained:
Experiment in all cases: growth of human tumour cells (NCI), 48 h
[1] = tested on: LOX IMVI melanoma
[2] = tested on: DLD-1 colon
[3] = tested on: HCT-15 colon
[4] = tested on: M19-MEL melanoma
[5] = tested on: DMS 273 small cell lung
[6] = tested on: HOP-92 NSCLC
[7] = tested on: SN12C renal
[8] = tested on: K-562 leukemia
[9] = tested on: NCI-H226 lung
[10] = tested on: MOLT-4 leukemia
[11] = tested on: TK-10 renal
[12] = tested on: UACC-62 melanoma
[13] = tested on: 786-0 renal
[14] = tested on: LXFL 529 NSCLC
[15] = tested on: SNB-75 CNS
[16] = tested on: U251 CNS
[17] = tested on: NCI-H522 lung
[18] = tested on: KM20L2 colon
[19] = tested on: OVCAR-3 ovarian
[20] = tested on: UACC-257 melanoma
[21] = tested on: DMS 114 small cell lung
[22] = tested on: MALME-3M melanoma
[23] = tested on: HT29 colon
[24] = tested on: A549 NSCLC
[25] = tested on: SK-MEL-28 melanoma
[26] = tested on: CCRF-CEM leukemia
[27] = tested on: CAKI-1 renal
[28] = tested on: SF-268 CNS
[29] = tested on: SK-MEL-2 melanoma
[30] = tested on: UO-31 renal
[31] = tested on: COLO 205 colon
[32] = tested on: RXF 393 renal
[33] = tested on: OVCAR-5 ovarian
[34] = tested on: OVCAR-8 ovarian
[35] = tested on: SNB-78 CNS
[36] = tested on: M14 melanoma
[37] = tested on: HCT-116 colon
[38] = tested on: NCI-H460 lung
[39] = tested on: IGROV1 ovarian
[40] = tested on: RPMI-8226 leukemia
[41] = tested on: HCC-2998 colon
[42] = tested on: HOP-18 NSCLC
[43] = tested on: A498 renal
[44] = tested on: NCI-H23 lung
[45] = tested on: SW-620 colon
[46] = tested on: OVCAR-4 ovarian
[47] = tested on: ACHN renal
[48] = tested on: SK-OV-3 ovarian

Measured: TGI

COC(=O)C1=C(C)N(NC(=O)Nc2ccccc2)C2(N)N(NC(=O)Nc3ccccc3)C(C)=C(C(=O)OC)C12C(=O)OC (stereo not drawn)
78.5 µM: [40]
78.7 µM: [4]
82.9 µM: [27]
71.3 µM: [10]
55.5 µM: [39]
84.6 µM: [35]
> 100 µM: all other assays above

Source: PubChem BioAssay (NCI)
